Results from ChEMBL document CHEMBL1201862, “PubChem BioAssay data set” (2004).
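Tested at 5 concentrations; 48 h exposure; 96-well plates; endpoints linearly interpolated, else capped at highest concentration. The concentration for 50% growth inhibition is given as GI50.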 Activity calls are given as the source filed them. Rule as the data show it: active = GI50 up to about 1.1 µM and inactive = higher.

Legend:
Assay in all cases: inhibition of tumour cell growth, NCI panel, 48 h
CCRF-CEM = system: CCRF-CEM
LOX IMVI = system: LOX IMVI
EKVX = system: EKVX
SK-MEL-28 = system: SK-MEL-28
OVCAR-5 = system: OVCAR-5
NCI-H460 = system: NCI-H460
OVCAR-3 = system: OVCAR-3
NCI-H226 = system: NCI-H226
IGROV-1 = system: IGROV-1
MCF7 = system: MCF7
UACC-257 = system: UACC-257
NCI/ADR-RES = system: NCI/ADR-RES
SF-539 = system: SF-539
T47D = system: T47D
786-0 = system: 786-0
NCI-H522 = system: NCI-H522
ACHN = system: ACHN
NCI-H23 = system: NCI-H23
OVCAR-8 = system: OVCAR-8
MOLT-4 = system: MOLT-4

| Structure (SMILES) | GI50 (CCRF-CEM) | GI50 (LOX IMVI) | GI50 (EKVX) | GI50 (SK-MEL-28) | GI50 (OVCAR-5) | GI50 (NCI-H460) | GI50 (OVCAR-3) | GI50 (NCI-H226) | GI50 (IGROV-1) | GI50 (MCF7) | GI50 (UACC-257) | GI50 (NCI/ADR-RES) | GI50 (SF-539) | GI50 (T47D) | GI50 (786-0) | GI50 (NCI-H522) | GI50 (ACHN) | GI50 (NCI-H23) | GI50 (OVCAR-8) | GI50 (MOLT-4) |
| --- | --- | --- | --- | --- | --- | --- | --- | --- | --- | --- | --- | --- | --- | --- | --- | --- | --- | --- | --- | --- |
| O=C(O)c1cccc2cccc(-c3cccc4cccc(C(=O)O)c34)c12 | > 100 µM (inactive) | > 100 µM (inactive) | > 100 µM (inactive) | > 100 µM (inactive) | > 100 µM (inactive) | > 100 µM (inactive) | > 100 µM (inactive) | > 100 µM (inactive) | > 100 µM (inactive) | > 100 µM (inactive) | > 100 µM (inactive) | > 100 µM (inactive) | > 100 µM (inactive) | > 100 µM (inactive) | > 100 µM (inactive) | > 100 µM (inactive) | > 100 µM (inactive) | > 100 µM (inactive) | > 100 µM (inactive) | – |
| Clc1cccc(Cl)c1C(Nc1nncs1)Nc1nncs1 | – | 21.8 µM (inactive) | 43.9 µM (inactive) | 21.8 µM (inactive) | 36.5 µM (inactive) | 25 µM (inactive) | 46.7 µM (inactive) | 26.9 µM (inactive) | 55.3 µM (inactive) | 36 µM (inactive) | 18.2 µM (inactive) | 50 µM (inactive) | 23.9 µM (inactive) | 56.8 µM (inactive) | 28.7 µM (inactive) | 22.3 µM (inactive) | 73.6 µM (inactive) | 40.2 µM (inactive) | 33.8 µM (inactive) | 17.3 µM (inactive) |
| C[C@]12CCC(=O)C=C1C[C@@H](O)[C@@H]1[C@@H]2CC[C@@]2(C)[C@H]1CC[C@]2(C)O | > 100 µM (inactive) | > 100 µM (inactive) | > 100 µM (inactive) | > 100 µM (inactive) | > 100 µM (inactive) | > 100 µM (inactive) | > 100 µM (inactive) | > 100 µM (inactive) | > 100 µM (inactive) | > 100 µM (inactive) | > 100 µM (inactive) | > 100 µM (inactive) | – | > 100 µM (inactive) | > 100 µM (inactive) | > 100 µM (inactive) | > 100 µM (inactive) | > 100 µM (inactive) | > 100 µM (inactive) | – |
| COc1ccc([C@]23CCN4COC[C@@H]([C@H]42)C2(CC3)OCC(C)(C)CO2)cc1OC | > 100 µM (inactive) | > 100 µM (inactive) | > 100 µM (inactive) | > 100 µM (inactive) | > 100 µM (inactive) | > 100 µM (inactive) | – | > 100 µM (inactive) | > 100 µM (inactive) | > 100 µM (inactive) | > 100 µM (inactive) | > 100 µM (inactive) | – | 66.5 µM (inactive) | > 100 µM (inactive) | > 100 µM (inactive) | > 100 µM (inactive) | > 100 µM (inactive) | > 100 µM (inactive) | > 100 µM (inactive) |
| CC(=O)Oc1ccc2c(c1)O/C(=C\c1ccc(N(C)C)cc1)C2=O | 82.4 µM (inactive) | – | > 100 µM (inactive) | > 100 µM (inactive) | – | 70.1 µM (inactive) | – | > 100 µM (inactive) | > 100 µM (inactive) | > 100 µM (inactive) | > 100 µM (inactive) | 29.6 µM (inactive) | 26.4 µM (inactive) | > 100 µM (inactive) | > 100 µM (inactive) | 25.9 µM (inactive) | > 100 µM (inactive) | > 100 µM (inactive) | > 100 µM (inactive) | 47.1 µM (inactive) |
| N#CCCN(CCC#N)c1ccc(/C=C2\N=C(c3ccccc3)N(c3ccc(C(=O)O)cc3)C2=O)cc1 | – | 30.9 µM (inactive) | 26.2 µM (inactive) | 36 µM (inactive) | > 100 µM (inactive) | 27.6 µM (inactive) | 40.1 µM (inactive) | 27.9 µM (inactive) | 20.3 µM (inactive) | 37.6 µM (inactive) | 37.2 µM (inactive) | > 100 µM (inactive) | 24.4 µM (inactive) | 40.7 µM (inactive) | 52 µM (inactive) | – | 42.5 µM (inactive) | – | 26.2 µM (inactive) | 0.641 µM (active) |
| COc1ccc(/C=N/NS(=O)(=O)c2ccc(/C=C3\NC(=O)NC3=O)cc2)cc1 | > 100 µM (inactive) | > 100 µM (inactive) | > 100 µM (inactive) | > 100 µM (inactive) | > 100 µM (inactive) | > 100 µM (inactive) | > 100 µM (inactive) | > 100 µM (inactive) | 87.5 µM (inactive) | > 100 µM (inactive) | > 100 µM (inactive) | > 100 µM (inactive) | – | > 100 µM (inactive) | 47.1 µM (inactive) | – | > 100 µM (inactive) | > 100 µM (inactive) | 51.5 µM (inactive) | > 100 µM (inactive) |
| O=C(Nc1ccc(Cl)cc1C(F)(F)F)C(=O)Nn1c(S)nc2ccccc2c1=O | 59.8 µM (inactive) | > 100 µM (inactive) | – | > 100 µM (inactive) | > 100 µM (inactive) | > 100 µM (inactive) | > 100 µM (inactive) | > 100 µM (inactive) | – | > 100 µM (inactive) | > 100 µM (inactive) | > 100 µM (inactive) | > 100 µM (inactive) | > 100 µM (inactive) | > 100 µM (inactive) | – | > 100 µM (inactive) | > 100 µM (inactive) | > 100 µM (inactive) | > 100 µM (inactive) |
| Clc1ccccc1CN1COc2c(cc(Cl)c3cccnc23)C1 | – | – | – | 6.27 µM (inactive) | 4.28 µM (inactive) | 2.75 µM (inactive) | 6.59 µM (inactive) | 1.3 µM (inactive) | 5.55 µM (inactive) | 4.94 µM (inactive) | 3.43 µM (inactive) | 0.224 µM (active) | 2.69 µM (inactive) | 6.05 µM (inactive) | 4.39 µM (inactive) | 3.4 µM (inactive) | 1.84 µM (inactive) | 3.38 µM (inactive) | 2.85 µM (inactive) | 0.28 µM (active) |
| COc1ccc2[nH]c3c(c2c1)CC(=O)N1CCCC(CC3O)C1 (centres undefined) | – | > 100 µM (inactive) | – | > 100 µM (inactive) | – | > 100 µM (inactive) | – | > 100 µM (inactive) | > 100 µM (inactive) | > 100 µM (inactive) | > 100 µM (inactive) | > 100 µM (inactive) | > 100 µM (inactive) | > 100 µM (inactive) | > 100 µM (inactive) | > 100 µM (inactive) | > 100 µM (inactive) | > 100 µM (inactive) | > 100 µM (inactive) | – |
| O=c1c2ccccc2nc2n1C(c1ccc([N+](=O)[O-])cc1)C2(c1ccccc1)c1ccccc1 (centres undefined) | 8.45 µM (inactive) | > 100 µM (inactive) | > 100 µM (inactive) | > 100 µM (inactive) | > 100 µM (inactive) | > 100 µM (inactive) | > 100 µM (inactive) | – | > 100 µM (inactive) | 54.6 µM (inactive) | > 100 µM (inactive) | > 100 µM (inactive) | > 100 µM (inactive) | > 100 µM (inactive) | > 100 µM (inactive) | > 100 µM (inactive) | > 100 µM (inactive) | > 100 µM (inactive) | > 100 µM (inactive) | 5.46 µM (inactive) |
| COc1ccc(C(=O)/C=C/c2ccc(OCC(=N)N)cc2)cc1 | 4.06 µM (inactive) | – | 16.4 µM (inactive) | 15.3 µM (inactive) | 31.7 µM (inactive) | > 10 µM (inactive) | 14.4 µM (inactive) | 18.8 µM (inactive) | 18.2 µM (inactive) | 13.2 µM (inactive) | 18.5 µM (inactive) | 28.2 µM (inactive) | 15.8 µM (inactive) | 10.7 µM (inactive) | 16.3 µM (inactive) | > 10 µM (inactive) | 17.6 µM (inactive) | 18.7 µM (inactive) | 14.3 µM (inactive) | 3.58 µM (inactive) |
| CCCCNC(=S)c1ccc(OC(=O)Nc2ccc(Cl)cc2)cc1 | 26.3 µM (inactive) | 0.573 µM (active) | 42.2 µM (inactive) | 22.3 µM (inactive) | 40.3 µM (inactive) | 10.4 µM (inactive) | 66.5 µM (inactive) | – | 3.02 µM (inactive) | 41.7 µM (inactive) | 77.4 µM (inactive) | 12.4 µM (inactive) | > 100 µM (inactive) | 58.6 µM (inactive) | > 100 µM (inactive) | 24.5 µM (inactive) | 70.6 µM (inactive) | 31.2 µM (inactive) | 12.6 µM (inactive) | 11.4 µM (inactive) |
| CC(=O)OCC1OC(N2C(S)=C(C#N)C(c3ccco3)C(C(C)=O)=C2c2ccccc2)C(OC(C)=O)C(OC(C)=O)C1OC(C)=O (centres undefined) | 28.3 µM (inactive) | 32.1 µM (inactive) | – | 30.1 µM (inactive) | 62.4 µM (inactive) | > 100 µM (inactive) | 77.6 µM (inactive) | > 100 µM (inactive) | 54.5 µM (inactive) | > 100 µM (inactive) | > 100 µM (inactive) | > 100 µM (inactive) | 78.5 µM (inactive) | > 100 µM (inactive) | 29.3 µM (inactive) | 32.1 µM (inactive) | > 10 µM (inactive) | 64.4 µM (inactive) | 61 µM (inactive) | > 100 µM (inactive) |
| CC(C)(O)/C=C\P(=O)(O)O | – | > 100 µM (inactive) | > 100 µM (inactive) | > 100 µM (inactive) | > 100 µM (inactive) | > 100 µM (inactive) | > 100 µM (inactive) | > 100 µM (inactive) | > 100 µM (inactive) | > 100 µM (inactive) | > 100 µM (inactive) | > 100 µM (inactive) | > 100 µM (inactive) | 7.1 µM (inactive) | > 100 µM (inactive) | > 100 µM (inactive) | > 100 µM (inactive) | > 100 µM (inactive) | > 100 µM (inactive) | – |
